Measurements from US5122523A, “N-acylamino acid derivatives and their pharmaceutical compositions” (Banyu Pharmaceutical Co., Ltd., priority 1987, dated 1992).

Experiments:
[1] = Absorption test by oral administration in rats (plasma concentration); format: in vivo; conditions: rat, rats (n=4), 10 mg/kg oral, read-out: Concentration of the compound in plasma
Method: TEST EXAMPLE 2: Absorption test by oral administration
10 mg/kg of the compound of Example 16 was orally administered to rats (n=4), whereupon the concentration of the compound in the plasma was measured. The concentration in the plasma was calculated by the inhibiting activities against human plasma renin.

human plasma renin = molecular target: T1, human plasma renin (Homo sapiens, UniProt P00797); assay: Renin inhibiting activities (human plasma, angiotensin I by radioimmunoassay); format: biochemical; conditions: pH7.4, 37° C., one hour
T1 construct: from tissue; host or cells: human plasma
T1 sequence (P00797 67-406): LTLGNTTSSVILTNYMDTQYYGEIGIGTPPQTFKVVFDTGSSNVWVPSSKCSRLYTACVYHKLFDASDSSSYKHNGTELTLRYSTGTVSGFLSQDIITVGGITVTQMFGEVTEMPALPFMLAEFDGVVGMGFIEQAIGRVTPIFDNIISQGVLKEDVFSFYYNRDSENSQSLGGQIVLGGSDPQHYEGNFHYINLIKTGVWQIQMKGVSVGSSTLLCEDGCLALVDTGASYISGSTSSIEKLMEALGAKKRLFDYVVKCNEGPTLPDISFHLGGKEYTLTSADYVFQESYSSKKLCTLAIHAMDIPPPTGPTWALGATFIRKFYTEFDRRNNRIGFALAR
Method: TEST EXAMPLE 1: Renin inhibiting activities
To 156 μl of a 0.2M sodium phosphate buffer solution (pH7.4), 40 μl of a solution mixture of 34 mM 8-hydroxyquinoline and 100 mM disodium ethylenediamine tetraacetate, 4 μl of dimethyl sulfoxide or a dimethyl sulfoxide solution of an inhibitor and 200 μl of human plasma were added and reacted at 37° C. for one hour. Then, pepstatin was added thereto to terminate the reaction, and the amount of the resulting angiotension I was measured by radio immunoassay whereby the inhibiting activity was determined.

IC50 (human plasma renin) [nM] | Compound | further results
3.4 | CCCC[C@H](NC(=O)C(Cc1cccc2ccccc12)CS(=O)(=O)CC)C(=O)N[C@@H](CC1CCCCC1)[C@@H](O)[C@H](O)CN1CCOCC1 (mixture of isomers) [Example 16, (2RS,3RS,4S)-4-{L-N-[3-ethylsulfonyl-2-(1-naphthylmethyl)propionyl]norleucyl}amino-5-cyclohexyl-1-morpholino-2,3-pentandiol] | concentration at 0.5 h ([1]; 1/2 hrs): 267 ng/mL; concentration at 0.25 h ([1]; 1/4 hrs): 212 ng/mL; concentration at 10 min ([1]; 1/6 hrs): 136 ng/mL; concentration at 5 min ([1]; 1/12 hrs): 89 ng/mL; concentration at 1 h ([1]; 1 hr): 183 ng/mL; concentration at 2 h ([1]; 2 hrs): 85 ng/mL; concentration at 4 h ([1]; 4 hrs): 34 ng/mL; concentration at 8 h ([1]; 8 hrs): 12 ng/mL; concentration at 24 h ([1]; 24 hrs): 7 ng/mL
4.2 | CCS(=O)(=O)C[C@@H](Cc1cccc2ccccc12)C(=O)N[C@@H](Cc1c[nH]cn1)C(=O)N[C@@H](CC1CCCCC1)[C@@H](O)[C@@H](O)CN1CCOCC1 [Example 31, (2S,3R,4S)-4-{L-N^α -[(2S)-3-ethylsulfonyl-2-(1-naphthylmethyl)propionyl]histidyl}amino-5-cyclohexyl-1-morpholino-2,3-pentanediol] | 
5.9 | CC(C)[S+]([O-])C[C@@H](Cc1cccc2ccccc12)C(=O)N[C@@H](Cc1c[nH]cn1)C(=O)N[C@@H](CC1CCCCC1)[C@@H](O)[C@@H](O)CN1CCOCC1 (stereo partly drawn) [Example 35, (2S,3R,4S)-4-{L-N^α -[(2S)-3-isopropylsulfinyl-2-(1-naphthylmethyl)propionyl]histidyl}amino-5-cyclohexyl-1-morpholino-2,3-pentanediol] | 
5.9 | CCCC[C@H](NC(=O)[C@H](Cc1cccc2ccccc12)CS(=O)(=O)C(C)(C)C)C(=O)N[C@@H](CC1CCCCC1)[C@@H](O)[C@@H](O)CN1CCOCC1 [Example 38, (2S,3R,4S)-4-{L-N-[(2S)-3-tert-butylsulfonyl-2-(1-naphthylmethyl)propionyl]norleucyl}amino-5-cyclohexyl-1-morpholino-2,3-pentanediol] | 
5.3 | CCCC[C@H](NC(=O)[C@@H](CSc1ncccn1)Cc1cccc2ccccc12)C(=O)N[C@@H](CC1CCCCC1)[C@@H](O)[C@@H](O)CN1CCOCC1 [Example 40, (2S,3R,4S)-4-{L-N-[(2S)-2-(1-naphthylmethyl)-3-(pyrimidin-2-yl)thiopropionyl]norleucyl}amino-5-cyclohexyl-1-morpholino-2,3-pentanediol] | 
1.7 | CCCC[C@H](NC(=O)[C@H](Cc1cccc2ccccc12)CS(=O)(=O)c1ncccn1)C(=O)N[C@@H](CC1CCCCC1)[C@@H](O)[C@@H](O)CN1CCOCC1 [Example 41, (2S,3R,4S)-4-{L-N-[(2S)-2-(1-naphthylmethyl)-3-(pyrimidin-2-yl)sulfonylpropionyl]norleucyl}amino-5-cyclohexyl-1-morpholino-2,3-pentanediol] | 
3.8 | CCCC[C@H](NC(=O)[C@H](Cc1ccccc1)CS(=O)(=O)c1ncccn1)C(=O)N[C@@H](CC1CCCCC1)[C@@H](O)[C@@H](O)CN1CCOCC1 [Example 44, (2S,3R,4S)-4-{L-N-[(2S)-2-benzyl-3-(pyrimidin-2-yl)sulfonylpropionyl]norleucyl}amino-5-cyclohexyl-1-morpholino-2,3-pentanediol] | 
2.3 | CCCC[C@H](NC(=O)[C@H](Cc1cccc2ccccc12)CS(=O)(=O)Cc1ccco1)C(=O)N[C@@H](CC1CCCCC1)[C@@H](O)[C@@H](O)CN1CCOCC1 [Example 47, (2S,3R,4S)-4-{L-N-[(2S)-3-furfurylsulfonyl-2-(1-naphthylmethyl)propionyl]norleucyl}amino-5-cyclohexyl-1-morpholino-2,3-pentanediol] | 
6.1 | CCCC[C@H](NC(=O)[C@H](Cc1cccc2ccccc12)C[S+]([O-])CC)C(=O)N[C@@H](CC1CCCCC1)[C@@H](O)[C@@H](O)CN1CCOCC1 (stereo partly drawn) [Example 49(A), (2S,3R,4S)-4-{L-N-[(2S)-3-ethylsulfinyl-2-(1-naphthylmethyl)propionyl]norleucyl}amino-5-cyclohexyl-1-morpholino-2,3-pentanediol] | 
3 | CCCC[C@H](NC(=O)[C@H](Cc1ccccc1)CS(=O)(=O)C1CCCC1)C(=O)N[C@@H](CC1CCCCC1)[C@@H](O)[C@@H](O)C[N+]1([O-])CCOCC1 [Example 52, N-[(2S,3R,4S)-4-[L-N-[(2S)-3-cyclopentanesulfonyl-2-benzylpropionyl]norleucyl]amino-5-cyclohexyl-2,3-dihydroxypentyl]morpholine N-oxide] | 
2 | CCCC[C@H](NC(=O)[C@H](Cc1ccccc1)CS(=O)(=O)Cc1ccco1)C(=O)N[C@@H](CC1CCCCC1)[C@@H](O)[C@@H](O)CN1CCOCC1 [Example 56, (2S,3R,4S)-4-{L-N-[(2S)-2-benzyl-3-furfurylsulfonylpropionyl]norleucyl}amino-5-cyclohexyl-1-morpholino-2,3-pentanediol] | 
